According to paper PMC11356839, “The Synthesis of SNAC Phenolate Salts and the Effect on Oral Bioavailability of Semaglutide” (Molecules, 2024):
Each block holds one molecule with its values, some of them ahead of it.

Tests used:
[1] = dogs, semaglutide formulated with SNAC tablet; cited from earlier work
Excerpt: The professional literature has contained studies concerning the mechanism of SNAC to enhance permeability. […] SNAC increases lipophilicity of the formulation and causes a local increase in pH via a buffering action.

[2] = rat, in vivo
Experimental: All compounds are powders.
IV solution was prepared by dissolving semaglutide in water containing disodium phosphate (0.014% w/v), propylene glycol (0.144% w/v), and phenol (0.056% w/v). The solution was diluted by 3 to reach semaglutide concentration of 0.046mg/mL and filtrated by a sterile 0.22 μm syringe filter.
Pharmacokinetic study protocol: Male Wistar rats (275–300 g, Harlan, Israel) were kept under a 12 h light/dark cycle, with free access to food and water. Animals were anesthetized, and an indwelling cannula was placed into the right jugular vein for systemic blood sampling. The cannula was tunneled beneath the skin and exteriorized at the dorsal part of the neck. The animals were transferred to individual cages to recover overnight (12–18 h). Throughout the experiments, free access to food was available 4 h post-oral administration.
Oral SNAC or salt formulations were dispersed in distilled water and then administrated by oral gavage (~1.2 mL for a rat to get semaglutide dose of 12 mg/kg). Blood samples (0.36 mL) were obtained by intravenous cannula, placed into the jugular vein. In the case of oral administration, samples were taken at 5 min pre-dose intervals and at different time points post-dose, according to the pharmacokinetic profile (no more than 10% of rat blood volume was drawn). To prevent dehydration, physiological solutions were administered, following each blood sampling. Plasma was separated by centrifugation (4000 rpm, 7 min, 4 °C) and stored at −20 °C until use.
Plasma samples were analyzed by a developed LC-MS method for semaglutide.
Absolute bioavailability values and other pharmacokinetic observations were assessed by comparison to intravenous bolus of semaglutide.
Semaglutide in plasma was performed in an Eppendorf® tube by mixing 150 μL of the plasma sample with 150 μL acetonitrile (ACN) and 15 μL of 5% formic acid (FA) and vortexed for 5 min. The tube was centrifuged at 15 °C, 6000 rpm for 6 min. Then, 160 μL of the supernatant was collected in a new tube. A second extraction was performed for the remaining precipitant by adding 60 μL of 5% FA, followed by mixing and centrifugation. Supernatant, 50 μL, was transferred into a tube. The solvent was evaporated to dryness, reconstituted with 50 μL 5% FA, and analyzed by an LC-MS system. Semaglutide standards were prepared by spiking semaglutide solutions in 5% FA into plasma to obtain final concentrations of 1–0.005 μg/mL. The same extraction procedure was performed on the standards as well.
MS/MS analyses were determined on a Sciex (Framingham, MA, USA) QTRAP® 6500^+ mass spectrometer). The chromatography analysis was performed using reverse-phase conditions using a Shimadzu (Kyoto, Japan) UHPLC System, consisting of a Shimadzu CBM-20A communication bus module, Nexera X2 LC-30AD pump, including a Shimadzu DGU-20A5R degasser, a Shimadzu SIL-30AC autosampler, and a Shimadzu CTO-20AC column oven. Liquid chromatography separation was obtained using 10 μL injections of samples onto an XBridge Peptide BEH C18 column (3.5 µm 300Å, 50 × 2.1 mm) from Waters Corp. (Milford, MA, USA), protected by a SecurityGuard™ (Phenomenex, Torrance, CA, USA) cartridge (C18, 2 × 2.1 mm). The column was maintained at 40 °C during the entire analysis. Gradient elution mobile phases consisted of 0.1% formic acid in water (Phase A) and 0.1% formic acid in methanol (Phase B). A flow rate of 0.2 mL/min was applied with a linear gradient from 60% to 80% B over 3.5 min and then held at 80% B for additional 4.5 min. The column was then equilibrated for 6 min at starting conditions prior to the injection of the next sample. The gradient elution program (0.2 mL/min) is described in Table 1.

[3] = clinical study, cited from earlier work
Excerpt: Preclinical studies reached similar conclusions, although with slightly different values. It is important to remember that the study model, as well as the specific drug being investigated, plays a role in the results, as the drug’s properties and size also affect its absorption. Semaglutide, being ...

semaglutide absorption after oral administration not including SNACs [2]: negligible semaglutide absorption
Molecule: CC[C@H](C)[C@H](NC(=O)[C@H](Cc1ccccc1)NC(=O)[C@H](CCC(=O)O)NC(=O)[C@H](CCCCNC(=O)COCCOCCNC(=O)COCCOCCNC(=O)CC[C@H](NC(=O)CCCCCCCCCCCCCCCCC(=O)O)C(=O)O)NC(=O)[C@H](C)NC(=O)[C@H](C)NC(=O)[C@H](CCC(N)=O)NC(=O)CNC(=O)[C@H](CCC(=O)O)NC(=O)[C@H](CC(C)C)NC(=O)[C@H](Cc1ccc(O)cc1)NC(=O)[C@H](CO)NC(=O)[C@H](CO)NC(=O)[C@@H](NC(=O)[C@H](CC(=O)O)NC(=O)[C@H](CO)NC(=O)[C@@H](NC(=O)[C@H](Cc1ccccc1)NC(=O)[C@@H](NC(=O)CNC(=O)[C@H](CCC(=O)O)NC(=O)C(C)(C)NC(=O)[C@@H](N)Cc1cnc[nH]1)[C@@H](C)O)[C@@H](C)O)C(C)C)C(=O)N[C@@H](C)C(=O)N[C@@H](Cc1c[nH]c2ccccc12)C(=O)N[C@@H](CC(C)C)C(=O)N[C@H](C(=O)N[C@@H](CCCNC(=N)N)C(=O)NCC(=O)N[C@@H](CCCNC(=N)N)C(=O)NCC(=O)O)C(C)C [semaglutide, Semaglutide]
semaglutide concentration underneath the tablet compared to 6 cm at a further distance [1]: 10 fold

AUC0−8 ([2]; po, 12 mg/kg): 5083 ± 1478 ng·h/mL
AUC0−∞ ([2]; po, 12 mg/kg): 7729 ± 2928 ng·h/mL
Cmax ([2]; po, 12 mg/kg): 945 ± 295 ng/mL
fold increase in AUC0−8 over the original SNAC formulation ([2]; po, 12 mg/kg): ~ 3 fold
fold increase in AUC0−∞ over the original SNAC formulation ([2]; po, 12 mg/kg): ~ 4 fold
fold increase in F% over the original SNAC formulation ([2]; po, 12 mg/kg): ~ 4 fold
Molecule: SNAC–phosphatidylcholine [PC]

Molecule: vitamin B12
absolute absorption, formulation with SNAC ([3]; oral vitamin B12 affected by SNAC): 5%
absolute absorption, commercial product ([3]; oral vitamin B12 commercial product): 2%
